# In publication PMC11187126, “Structure and dynamics of the pyroglutamylated RF-amide peptide QRFP receptor GPR103” (Nature Communications, 2024):
# Like-named read-outs stand apart in the source and are kept apart here. No end group written: not given here.
# Molecular target: T1, wild-type GPR103 (Homo sapiens, UniProt Q96P65)
# T1 construct: we used human full-length QRFPR-encoding plasmids; expressed in transfected cells; host or cells: HEK293 cells, pCAGGS vector
# T1 sequence (Q96P65 1-431): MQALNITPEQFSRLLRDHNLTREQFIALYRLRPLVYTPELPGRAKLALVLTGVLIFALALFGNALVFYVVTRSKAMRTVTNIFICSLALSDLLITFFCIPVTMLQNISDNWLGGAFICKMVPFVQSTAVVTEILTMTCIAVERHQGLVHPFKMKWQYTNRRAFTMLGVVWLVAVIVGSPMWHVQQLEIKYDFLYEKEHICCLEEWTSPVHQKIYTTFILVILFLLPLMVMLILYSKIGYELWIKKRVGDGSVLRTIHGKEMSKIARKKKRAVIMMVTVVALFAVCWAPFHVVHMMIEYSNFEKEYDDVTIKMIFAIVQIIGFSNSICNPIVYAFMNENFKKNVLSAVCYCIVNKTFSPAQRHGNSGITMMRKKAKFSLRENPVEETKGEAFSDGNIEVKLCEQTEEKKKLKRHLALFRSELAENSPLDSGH
# Assay: TGFα shedding assay, HEK293 cells; WT titrated to lower expression (1:1 to 1:50)
# Type: cell-based
# Experimental: For the TGFα shedding assay and the flow cytometry analysis, we used human full-length QRFPR-encoding plasmids. Specifically, GPR103 was N-terminally modified with an HA signal sequence followed by a FLAG epitope and then a flexible linker ([…]; the FLAG epitope is underlined) and inserted into the pCAGGS vector. Plasmid encoding GPR103 mutants were generated using Quickchange Site-Directed Mutagensis kit (Agilent).
# The TGFα shedding assay was performed as described previously with minor modifications. Plasmid transfection was performed in a 6-well plate with a mixture of 500 ng (per well in a 6-well plate) AP-TGFα-encoding plasmid and 200 ng GPR103-encoding plasmid. After 1-day culture, the transfected cells were harvested by trypsinization, pelleted by centrifugation at 190 × g for 5 min, and washed once with 5 mM HEPES (pH 7.4)-containing Hank’s Balanced Salt Solution (HBSS). After centrifugation, the cells were resuspended in 8 mL of the HEPES-containing HBSS. The cell suspension was seeded in a 96-well culture plate (cell plate) at a volume of 90 μL (per well hereafter) and incubated in a 37 °C incubator with 5% CO2 for 30 min. […] After spinning the cell plates at 190 × g for 2 min, 80 μL of conditioned media was transferred to an empty 96-well plate (conditioned media (CM) plate). Then, 80 μL of AP reaction solution (10 mM p-nitrophenylphosphate (p-NPP), 120 mM Tris-HCl (pH 9.5), 40 mM NaCl, and 10 mM MgCl2) was dispensed into the cell plates and the CM plates. Absorbance at 405 nm of the plates was measured using a microplate reader (SpectraMax 340 PC384, Molecular Devices) before and after 1-h incubation at room temperature. Ligand-induced AP-TGFα release was calculated by subtracting spontaneous AP-TGFα release signal from ligand-induced AP-TGFα release signal. The AP-TGFα release signals were fitted to a four-parameter sigmoidal concentration–response curve, using the Prism 10 software (GraphPad Prism). For each replicate experiment, the pEC50 parameter (negative logarithmic values of EC50 values) of the individual GPR103 mutants were normalized to that of the wild-type GPR103 performed in parallel, and resulting ∆pEC50 values were used to denote ligand response activity of the mutants. […]
# Exp. le vel: WT (1:5 0)Exp. le vel: WT (1:5 0)Exp. le vel: WT (1:5 0)Exp. le vel: WT (1:2 0)Exp. le vel: WT (1:2 0)Exp. le vel: WT (1:1 0) […]
# L1 4N - t e r mA F2 5N - t e r mA I 2 6N - t e r mA Y 2 9N - t e r mA C 9 82 .5 7A T10 22 .6 1A Exp . l eve l: WT (1 :5)Exp . l evel : >WT (1 :1)Exp. le vel: WT (1:2 0)Exp. le vel: WT (1:2 0)Exp. le vel: WT (1:5 0)Exp . l eve l: WT (1 :1) […]
# Exp. le vel: WT (1:1 0)Exp. le vel: WT (1:2 0) C 1 1 83 .2 5AExp. le vel: WT (1:5 0)Exp. le vel: WT (1:5 0)Exp. le vel: WT (1:2 0)Exp . l eve l: WT (1 :5) […]
# Exp. le vel: WT (1:5 0)Exp. le vel: WT (1:1 0)Exp. le vel: WT (1:5 0) E203ECL2AExp . l evel : >WT (1 :1)Exp. le vel: WT (1:5 0)Exp. le vel: WT (1:5 0) […]
# Exp . l eve l: WT (1 :1) F28Exp. le vel: WT (1:5 0) C 2 8 56 .4 7AExp. le vel: WT (1:2 0) WExp. le vel: WT (1:2 0) F28Exp. le vel: WT (1:5 0)Exp . l evel : >WT (1 :1) […]
# Exp. le vel: WT (1:5 0)Exp. le vel: WT (1:5 0) C 3 2 77 .4 8AExp . l eve l: WT (1 :5)Exp . l evel : >WT (1 :1)Exp . l evel : >WT (1 :1) […]
# Suppl eme nt ary Figure 1 | Mutational analysis of GPR103. […]
# mutants. Data are presented as mean values ± SEM, normally n=3-5; dots), each performed in triplicate. b-d Cell-surface expression (b) and QRFP26-in-duced activation of GPR103 (c, d) were analyzed by the flow cytometry and the TGFα shedding assay, respectively. From the concentration–response curves (a), Emax (c) and ΔpEC50 (d) values relative to the wild type were calculated. Colors in the mutant bars indicate an expression level matching to that of titrated wild type. Statistical analyses were performed using the ordinary one-way ANOVA followed by Dunnett tests with the expression-matched […]
substance,measurement,setting,value
TSGPLGNLAEELNGYSRKKGGFSFRF-NH2 [QRFP26],Emax,"HEK293, WT (1:2), mean, read-out: Emax",102%
same,Emax,"HEK293, WT (1:2), n = 5, read-out: Emax",102 ± 1.4%
same,Emax,"HEK293, WT (1:5), mean, read-out: Emax",98%
same,Emax,"HEK293, WT (1:10), mean, read-out: Emax",85.2%
same,Emax,"HEK293, WT (1:10), n = 5, read-out: Emax",86.5 ± 1.5%
same,Emax,"HEK293, WT (1:20), mean, read-out: Emax",68.7%
same,Emax,"HEK293, WT (1:20), n = 5, read-out: Emax",69.6 ± 1.9%
same,Emax,"HEK293, WT (1:50), mean, read-out: Emax",40%
same,Emax,"HEK293, WT (1:50), n = 3, read-out: Emax",38.9 ± 2.7%
same,EC50,"WT (1:1), n = 5",5.13 nM
same,Emax,"WT (1:2), Exp. #1",99.44 % WT
same,Emax,"WT (1:2), Exp. #2",98.59 % WT
same,Emax,"WT (1:2), Exp. #3",107.25 % WT
same,Emax,"WT (1:2), Exp. #4",101.53 % WT
same,Emax,"WT (1:2), Exp. #5",103.42 % WT
same,EC50,"WT (1:2), n = 5",6.61 nM
same,Emax,"WT (1:5), Exp. #1",95.01 % WT
same,Emax,"WT (1:5), Exp. #2",93.02 % WT
same,Emax,"WT (1:5), Exp. #3",103.20 % WT
same,Emax,"WT (1:5), Exp. #4",97.64 % WT
same,Emax,"WT (1:5), Exp. #5",100.97 % WT
same,EC50,"WT (1:5), n = 5",12.6 nM
same,Emax,"WT (1:10), Exp. #1",87.43 % WT
same,Emax,"WT (1:10), Exp. #2",82.73 % WT
same,Emax,"WT (1:10), Exp. #3",90.71 % WT
same,Emax,"WT (1:10), Exp. #4",84.24 % WT
same,Emax,"WT (1:10), Exp. #5",81.03 % WT
same,EC50,"WT (1:10), n = 5",15.1 nM
same,Emax,"WT (1:20), Exp. #1",70.65 % WT
same,Emax,"WT (1:20), Exp. #2",70.10 % WT
same,Emax,"WT (1:20), Exp. #3",74.01 % WT
same,EC50,"WT (1:20), n = 5",21.4 nM
same,Emax,"WT (1:50), Exp. #3",46.11 % WT
same,Emax,"WT (1:50), Exp. #4",34.55 % WT
same,Emax,"WT (1:50), Exp. #5",39.32 % WT
same,EC50,"WT (1:50), n = 3",53.7 nM
